Data taken from patent US12466885B2, “Bispecific chimeric antigen receptors and encoding polynucleotides, vectors and cells thereof” (Seattle Children's Hospital, priority 2012, dated 2025).

Tests used:
[1] = test system: non-transduced CTLL2 cells; test: MTX effect on non-transduced CTLL2 cells; format: cell-based, murine; settings: ≥0.05 μM MTX
Text: In the absence of MTX, the non-transduced and transduced CTLL2 cells expanded at an equivalent rate (21- and 27-fold respectively).

[2] = test system: non-transduced primary human T cells; test: MTX effect on non-transduced primary human T cells; format: cell-based; settings: starting at concentrations as low as 0.025 μM MTX
Method: (§1) Applicants transduced primary human T cells with the same CD19CAR-huEGFRt-hDHFR^FS lentiviral vector. Purified CD62L^+CD45RO^+ T cells were used as a starting population based on their potential for persistence after adoptive transfer. Ten days after transduction, these T cells were cultured in varying concentrations of MTX and assessed for cell number and viability over time.

[3] = test system: transduced CTLL2 cells; test: MTX resistance and selection of CD19CAR-huEGFRt-hDHFR^FS transduced CTLL2 cells; format: cell-based, murine; settings: for huEGFRt^+ cells: 8 days
Method: CTLL2 T cells were first transduced with this CD19CAR-huEGFRt-hDHFR^FS lentiviral vector and evaluated for their resistance to MTX.
To further characterize the maximum dose of MTX that could be tolerated by selected CTLL2 cells, transduced CTLL2 cells that had been cultured in 0.1 μM MTX for 8 days were re-plated at a wider range of MTX concentrations (up to 0.75 μM).

[4] = test system: transduced primary human T cells (CD62L^+CD45RO^+); test: MTX selection of CD19CAR-huEGFRt-hDHFR^FS transduced primary human T cells; format: cell-based
Method: as §1

[5] = test system: huEGFRt^+ T cells; test: ADCC of huEGFRt^+ T cells, 4-hour chromium release assay; format: cell-based, human
Text: A valuable feature of a cell surface selection/tracking marker would be its capacity to serve as a target for in vivo cell ablation.
^51Cr-labeled huEGFRt^+ T cells as the target cells and human GM-CSF activated fresh PBMCs as effectors were co-cultured.

| Molecule | non-transduced CTLL2 cell expansion and viability [1] | viability and fold-expansion of non-transduced primary human T cells [2] | huEGFRt^+ cells ([3]; 0.01 μM MTX) | huEGFRt^+ cells ([3]; 0.025 μM MTX) | huEGFRt^+ cells ([3]; 0.05 μM MTX) | huEGFRt^+ cells ([3]; 0.1 μM MTX) | expansion of transduced cells ([3]; MTX (0-0.1 μM) for 8 days) | survival of transduced cells ([3]; MTX (0-0.1 μM) for 8 days) | expansion of transduced and pre-MTX selected cells ([3]; MTX concentrations up to 0.25 μM, pre-cultured in 0.1 μM MTX for 8 days) | CD19CAR^+ cells ([4]; 0.025 μM MTX, 10 days) | EGFRt^+ cells ([4]; 0.025 μM MTX, 10 days) | CD19CAR^+ cells ([4]; 0.05 μM MTX, 10 days) | EGFRt^+ cells ([4]; 0.05 μM MTX, 10 days) | viability of transduced T cells ([4]; 0.1 μM MTX) | CD19CAR^+ cells ([4]; Day 6 of culture (Day 0: 18%)) | EGFRt^+ cells ([4]; Day 6 of culture (Day 0: 28%)) | CD19CAR^+ cells ([4]; Day 10 of culture) | EGFRt^+ cells ([4]; Day 10 of culture) | triggering ADCC of huEGFRt^+ T cells [5] |
| --- | --- | --- | --- | --- | --- | --- | --- | --- | --- | --- | --- | --- | --- | --- | --- | --- | --- | --- | --- |
| CN(Cc1cnc2nc(N)nc(N)c2n1)c1ccc(C(=O)N[C@@H](CCC(=O)O)C(=O)O)cc1 [MTX, methotrexate] | strong inhibition | strong inhibition | 49% | 93% | 98.5% | 99% | 7 fold | 80% | 90-100 fold | about 54% | ~79% | about 76% | ~89% | 63% | 48% | 71% | 70% | 88% |  |
| RITUXAN® (rituximab): CD20-specific mAb |  |  |  |  |  |  |  |  |  |  |  |  |  |  |  |  |  |  | no effect |
